In patent US7015345B2, “Propionic acid derivatives” (Asahi Kasei Pharma Corporation, priority 2002, dated 2006):
Where two headings read alike, the source gives them in different places.

Key:
db/db mice = experiment: Hypoglycemic action and triglyceride-decreasing action in db/db mice; format: in vivo; details: Mus musculus, 360 h; for inhibition in vivo at 10 mg/kg: 10 mg/kg oral once a day for 2 weeks; for inhibition in vivo at 1 mg/kg: 1 mg/kg oral once a day for 2 weeks; for inhibition in vivo at 3 mg/kg: 3 mg/kg oral once a day for 2 weeks
Method: Test for Measuring Hypoglycemic Action and Triglyceride-Decreasing Action in db/db Mice
Each of test compounds was administered once a day for 2 weeks to db/db mice genetically presenting pathological conditions of obesity, hyperglycemia, and hyperlipidemia. Blood was collected from the mice immediately before the start of administration of a test sample or a vehicle on the first day. Plasma glucose levels and triglyceride levels were measured, and the mice were divided into groups so that average glucose levels and triglyceride levels gave no significant value among the groups. All the test samples were suspended in a 0.5% methylcellulose (MC) solution and orally administered. For a vehicle-administered control group, a 0.5% MC solution was orally administered. Blood samples were collected from the mice on the 15th day, and plasma glucose levels and triglyceride levels were measured. A hypoglycemic rate and triglyceride-reducing rate were calculated by using the following equations.

[1] = tested on: hamsters fed with high cholesterol diet; experiment: Total plasma cholesterol and non-HDL cholesterol reducing action in hamster fed high cholesterol diet; format: in vivo; details: Mesocricetus auratus, 192 h, hamsters on high cholesterol diet, 10 mg/kg oral once a day for one week, plasma on 8th day
Method: Test for Measuring Total Plasma Cholesterol Reducing Action and Non-HDL Cholesterol (VLDL Cholesterol+LDL Cholesterol) Reducing Action in Hamster
A test compound (10 mg/kg) was administered once a day for one week to hamsters fed with high cholesterol diet (CE-2 (Clea Japan)+1% cholesterol+10% coconut oil) for five days. The plasma cholesterol level and the plasma HDL cholesterol level were measured immediately before the start of the administration of the test sample or vehicle on the 1st day, and the hamsters were divided into groups so that the groups gave no significant value of initial levels of the both measurements. Each of the test samples was dissolved in a 0.5% methylcellulose (MC) solution and orally administered. A 0.5% methylcellulose (MC) solution was orally administered to the hamsters as a vehicle control group. A blood sample was collected on the 8th day, and the plasma cholesterol level and the plasma HDL cholesterol level were measured. The total cholesterol reducing rate was obtained by using the following equation. [formula]
Further, non-HDL cholesterol level (LDL cholesterol level+VLDL cholesterol level) was calculated as (Total cholesterol level−HDL cholesterol level), and the reducing rate thereof was calculated by using the following equation. [formula]

Zucker rats = experiment: Liver triglyceride contents in Zucker rats; format: in vivo; details: Rattus norvegicus, 336 h, read-out: Triglyceride reducing rate (%); for inhibition in vivo at 1 mg/kg: 1 mg/kg once a day for 2 weeks
Method: Measurement of Liver Triglyceride Contents in Zucker Rats
To Zucker rats, a vehicle (0.5% MC), a compound of the present invention or fenofibrate (Sigma) was administered once a day for 2 weeks. The livers were isolated on the next day of the final administration, and amounts of triglyceride in the livers were determined. Triglyceride was extracted by adding 5 ml of a mixture of hexane and isopropanol (2:1, V/V) to 100 mg of liver, homogenizing the liver using Polytron homogenizer, then sufficiently stirring and centrifuging the homogenate at 2000 g for 10 minutes at room temperature. The amount of triglyceride in the solution layer was measured.

[2] = tested on: 3T3-L1 precursor adipocytes; experiment: Uptake of glucose by adipocytes ([3H]-2-deoxy-glucose uptake); format: cell-based; details: Mus musculus, 100 nM compound, 4 to 5 days culture, 100 nM insulin stimulation, relative to 10 μM rosiglitazone taken as 100%, read-out: Amount of glucose uptake (%)
Method: (§1) Test for Uptake of Glucose By Adipocytes and Test for Triglyceride Accumulation in Adipocytes
According to the method of Mukherjee et al. (Mol. Endocrinol, 14, 1425–1433, 2000), a glucose uptake experiment was performed by using cultured cells. 3T3-L1 precursor adipocytes were cultured for 4 to 5 days in the presence of a test compound, and then stimulated with 100 nM insulin, and then the amount of [^3H]-2-deoxy-glucose (2DG) uptake by the cells was measured. The amount of glucose uptake provided after the treatment with 100 nM of each compound was measured, and represented as a relative value based on the amount of glucose uptake provided after the treatment with 10 μM rosiglitazone, which was taken as 100%.

[3] = tested on: 3T3-L1 precursor adipocytes; experiment: Triglyceride accumulation in adipocytes; format: cell-based; details: Mus musculus, 100 nM compound, 4 to 5 days culture, relative to 10 μM rosiglitazone taken as 100%, read-out: Amount of accumulated triglyceride (%)
Method: as §1
Further, 3T3-L1 precursor adipocytes were cultured for 4 to 5 days in the presence of a test compound, and then the amount of triglyceride in the cells was measured according to the method of Shibata T et al. (Eur. J. Pharmacol., 364 (2–3), 211–219, 1999). The amount of accumulated triglyceride provided after the treatment with 100 nM of each compound was measured, and represented as a relative value based on the amount of accumulated triglyceride provided after the treatment with 10 μM rosiglitazone, which was taken as 100%.

[4] = plasma glucose on 15th day vs vehicle, read-out: Hypoglycemic rate (%)
[5] = plasma triglyceride on 15th day vs vehicle, read-out: Triglyceride reducing rate (%)
[6] = non-HDL = total cholesterol - HDL cholesterol, read-out: Non-HDL cholesterol reducing rate (%)
[7] = read-out: Total cholesterol reducing rate (%)

Row | SMILES | inhibition in vivo at 10 mg/kg (db/db mice; [4]) | inhibition in vivo at 10 mg/kg (db/db mice; [5]) | inhibition in vivo at 10 mg/kg [1, 6] | inhibition in vivo at 10 mg/kg [1, 7] | inhibition in vivo at 10 mg/kg (Zucker rats; 10 mg/kg once a day for 2 weeks) | Emax at 0.1 µM [2] | Emax at 0.1 µM [3] | inhibition in vivo at 1 mg/kg (db/db mice; [4]) | inhibition in vivo at 1 mg/kg (db/db mice; [5]) | inhibition in vivo at 1 mg/kg (Zucker rats) | inhibition in vivo at 3 mg/kg (db/db mice; [4]) | inhibition in vivo at 3 mg/kg (db/db mice; [5]) | inhibition in vivo at 100 mg/kg (Zucker rats; 100 mg/kg once a day for 2 weeks)
1 | CCCCCCCN(CCOc1ccc(CC(OCC)C(=O)O)cc1)C(=O)Nc1ccc(F)cc1F (centres unmarked) [Example 2, 3-(4-{2-[3-(2,4-difluorophenyl)-1-heptylureido]ethoxy}phenyl)-2-ethoxypropionic acid] | 34% | 53% | 29% | 30% | 19% | 95% | 90% | – | – | – | – | – | –
2 | CCCCCCCN(CCOc1ccc(CC(OCC)C(=O)O)cc1)C(=O)OC (centres unmarked) [Example 56, 2-ethoxy-3-{4-[2-(N-heptyl-N-methoxycarbonylamino)ethoxy]phenyl}propionic acid] | – | – | 40% | 39% | – | 90% | 85% | 26% | 49% | 42% | – | – | –
3 | CCCCCCCN(CCOc1ccc(CC(OCC)C(=O)O)cc1)C(=O)OCc1ccccc1 (centres unmarked) [Example 57, 3-{4-[2-(N-benzyloxycarbonyl-N-heptylamino)ethoxy]phenyl}-2-ethoxypropionic acid] | – | – | 43% | 41% | – | 80% | 75% | – | – | 41% | 35% | 46% | –
4 | CCCCCCCN(CCOc1ccc(CC(OCC)C(=O)O)cc1)C(=O)OCCC (centres unmarked) [Example 59, 2-ethoxy-3-{4-[2-(N-heptyl-N-propoxycarbonylamino)ethoxy]phenyl}propionic acid] | – | – | 35% | 37% | – | 88% | 77% | – | – | 40% | 18% | 21% | –
5 | CCCCCCCN(CCOc1ccc(CC(OCC)C(=O)O)cc1)C(=O)OC(C)C (centres unmarked) [Example 66, 2-ethoxy-3-{4-[2-(N-heptyl-N-isopropyloxycarbonylamino)ethoxy]phenyl}propionic acid] | – | – | 42% | 40% | – | 95% | 80% | 32% | 57% | 44% | – | – | –
6 | C#CCOC(=O)N(CCCCCCC)CCOc1ccc(CC(OCC)C(=O)O)cc1 (centres unmarked) [Example 67, 2-ethoxy-3-(4-{2-[N-heptyl-N-(2-propynyloxycarbonyl)amino]ethoxy}phenyl)propionic acid] | – | – | 32% | 34% | – | 91% | 92% | 17% | 26% | 47% | – | – | –
7 | CCCCCCCN(CCOc1ccc(CC(OCC)C(=O)O)cc1)C(=O)OCC(C)C (centres unmarked) [Example 71, 2-ethoxy-3-{4-[2-(N-heptyl-N-isobutyloxycarbonylamino)ethoxy]phenyl}propionic acid] | – | – | 10% | 12% | – | 83% | 85% | 28% | 40% | 28% | – | – | –
8 | C=CCCOC(=O)N(CCCCCCC)CCOc1ccc(CC(OCC)C(=O)O)cc1 (centres unmarked) [Example 73, 3-(4-{2-[N-(3-butenyloxycarbonyl)-N-heptylamino]ethoxy}phenyl)-2-ethoxypropionic acid] | – | – | 45% | 45% | – | 99% | 96% | – | – | 34% | 30% | 43% | –
9 | CCCCCCCN(CCOc1ccc(CC(OCC)C(=O)O)cc1)C(=O)OCC (centres unmarked) [Example 75, 2-ethoxy-3-{4-[2-(N-ethoxycarbonyl-N-heptylamino)ethoxy]phenyl}propionic acid] | – | – | 46% | 48% | – | 98% | 98% | – | – | 32% | 38% | 32% | –
10 | CCOC(Cc1ccc(OCCN(CCOc2ccccc2)C(=O)OC(C)C)cc1)C(=O)O (centres unmarked) [Example 92, 2-ethoxy-3-(4-{2-[N-isopropoxycarbonyl-N-(2-phenoxyethyl)amino]ethoxy}phenyl)propionic acid] | – | – | 10% | 8% | – | 90% | 92% | – | – | 2% | 4% | 12% | –
11 | CCCCCCCN(CCOc1ccc(CC(OCC)C(=O)OCC)cc1)C(=O)OCC(F)(F)F (centres unmarked) [Example 96, 2-ethoxy-3-(4-{2-[N-heptyl-N-(2,2,2-trifluoroethoxycarbonyl)amino]ethoxy}phenyl)propionic acid ethyl ester] | – | – | 23% | 24% | – | 85% | 80% | – | – | 39% | 38% | 31% | –
12 | CCCCOCCN(CCOc1ccc(CC(OCC)C(=O)O)cc1)C(=O)OCCC (centres unmarked) [Example 115, 3-(4-{2-[N-(2-butoxyethyl)-N-propoxycarbonylamino]ethoxy}phenyl)-2-ethoxypropionic acid] | – | – | 17% | 17% | – | 98% | 95% | – | – | 42% | 11% | 18% | –
13 | CCCCCCCN(CCOc1ccc(CC(OC(C)C)C(=O)O)cc1)C(=O)OC (centres unmarked) [Example 118, 3-{4-[2-(N-heptyl-N-methoxycarbonylamino)ethoxy]phenyl}-2-isopropoxypropionic acid] | – | – | 50% | 45% | – | 60% | 55% | 42% | 51% | 47% | – | – | –
14 | CC(C)OC(=O)C(C)(C)Oc1ccc(C(=O)c2ccc(Cl)cc2)cc1 [Fenofibrate, fenofibrate, reference compound] | – | – | – | – | – | – | – | – | – | – | – | – | 22%
